The values that follow come from PMC6920801, “Conformation and Aggregation of Human Serum Albumin in the Presence of Green Tea Polyphenol (EGCg) and/or Palmitic Acid” (Biomolecules, 2019).

For this experiment, the target named is T1, Human serum albumin (HSA) (Homo sapiens, UniProt P02768).
T1 construct: gene ALB; fatty acid-free albumin from human serum; CPM-labelled at Cys-34 for FRET
Put plainly: FRET (Trp-214 to CPM-Cys-34) titration with one-site fit; Trp fluorescence quenching, CD, DLS. It counts as binding. An excerpt: FRET (Trp-214 to CPM-Cys-34) titration with one-site fit; Trp fluorescence quenching, CD, DLS on Human serum albumin (HSA) | The effect was dose dependent and fit a one binding site isotherm, with a calculated maximum change in distance

SMILES strings stand for the structures.

T1 sequence (P02768 25-609): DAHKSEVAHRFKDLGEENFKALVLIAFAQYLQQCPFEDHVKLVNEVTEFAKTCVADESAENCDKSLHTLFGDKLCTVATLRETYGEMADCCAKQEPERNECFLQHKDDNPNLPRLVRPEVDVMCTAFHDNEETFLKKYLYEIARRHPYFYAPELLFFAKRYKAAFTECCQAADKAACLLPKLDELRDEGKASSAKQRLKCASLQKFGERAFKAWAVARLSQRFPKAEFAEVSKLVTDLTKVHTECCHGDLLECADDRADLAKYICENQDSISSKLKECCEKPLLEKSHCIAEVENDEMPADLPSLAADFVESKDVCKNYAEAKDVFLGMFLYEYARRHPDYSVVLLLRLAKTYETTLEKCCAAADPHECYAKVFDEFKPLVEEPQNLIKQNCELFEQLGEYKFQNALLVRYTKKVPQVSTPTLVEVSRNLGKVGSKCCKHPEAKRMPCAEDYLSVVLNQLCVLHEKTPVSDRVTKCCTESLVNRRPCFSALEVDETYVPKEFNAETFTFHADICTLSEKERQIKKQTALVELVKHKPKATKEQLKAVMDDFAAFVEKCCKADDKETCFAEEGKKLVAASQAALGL

Usually EC50 stands for the concentration at which the effect is half-maximal. A low value points to a more potent agent. `O=C(O[C@@H]1Cc2c(O)cc(O)cc2O[C@@H]1c1cc(O)c(O)c(O)c1)c1cc(O)c(O)c(O)c1` [EGCg, (-)-epigallocatechin gallate] showed an EC50 of 3.7 µM.
